According to paper PMC9377253, “Antiproliferative and cytotoxic effects of sesquiterpene lactones isolated from Ambrosia artemisiifolia on human adenocarcinoma and normal cell lines” (Pharmaceutical Biology, 2022):

Experiments:
[1] = tested on: Staphylococcus aureus ATCC 25923; assay: Real-time ethidium bromide accumulation assay, S. aureus ATCC 25923; type: cell-based; conditions: EB accumulation, 60 min, positive control at 25 μM
Description: (§8) The impact of compounds on EB accumulation was determined by the automated EB method using a CLARIOstar Plus plate reader (BMG Labtech, Aylesbury, UK). First, the bacterial strain was incubated until it reached an OD of 0.6 at 600 nm [Escherichia coli AG100 is incubated in Luria–Bertani (LB) broth and Staphylococcus aureus ATCC 25923 is incubated in tryptic soy broth (TSB)]. The culture was washed with PBS (pH 7.4) and centrifuged at 13,000 × g for 3 min, the cell pellet was re-suspended in PBS. The compounds were added at ½ MIC concentration (in case of >100 the concentration is 100 µM) to PBS containing a non-toxic concentration of EB (2 µg/mL). […] Then, the plates were placed into the CLARIOstar plate reader, and the fluorescence was monitored at excitation and emission wavelengths of 525 and 615 nm every minute for 1 h on a real-time basis. From the real-time data, the activity of the compounds, namely the relative fluorescence index (RFI) of the last time point (60 min) of the EB accumulation assay, was calculated according to the following formula: RFI=(RFtreated – RFuntreated)/RFuntreated where RFtreated is the relative fluorescence (RF) at the last time point of EB retention curve in the presence of an inhibitor, and RFuntreated is the RF at the last time point of the EB retention curve of the untreated control having the solvent control (DMSO). […]

[2] = MTT cytotoxicity assay (24 h), MRC-5; type: cell-based; conditions: human, MRC-5 embryonal lung fibroblast cells, 24 h incubation
Description: (§1) MRC-5 human embryonal lung fibroblast cell lines (ATCC CCL-171) were purchased from LGC Promochem, Teddington, UK. The cell line was cultured in Eagle’s Minimal Essential Medium (EMEM, containing 4.5 g/L glucose) supplemented with a non-essential amino acid mixture, a selection of vitamins and 10% heat-inactivated foetal bovine serum. The cell lines were incubated at 37 °C, in a 5% CO2, 95% air atmosphere.
(§2) MRC-5 non-cancerous human embryonic lung fibroblast and human colonic adenocarcinoma cell lines (doxorubicin-sensitive Colo 205 and multidrug-resistant Colo 320 colonic adenocarcinoma cells) were used to determine the effect of compounds on cell proliferation and growth. The effects of increasing concentrations of compounds on cell proliferation and growth were tested in 96-well flat-bottomed microtitre plates. The compounds were diluted in a volume of 100 μL of medium.
(§3) The adherent human embryonal lung fibroblast cells were seeded overnight and cultured in 96-well flat-bottomed microtitre plates prior to the assay, using EMEM supplemented with 10% heat-inactivated foetal bovine serum. The density of the cells was adjusted to 6 × 10^3 cells (antiproliferative assay) or 1 × 10^4 cells (cytotoxicity assay) in 100 μL per well, the cells were seeded for 24 h at 37 °C, 5% CO2, then the medium was removed from the plates containing the cells, and the dilutions of compounds (200 µL) previously made in a separate plate were added to the cells in.
(§4) The culture plates were incubated at 37 °C for 72 h (antiproliferative test) or 24 h (cytotoxicity test); at the end of the incubation period, 20 μL of MTT (thiazolyl blue tetrazolium bromide, Sigma, St. Louis, MO, USA) solution (from a stock solution of 5 mg/mL) were added to each well. After incubation at 37 °C for 4 h, 100 μL of sodium dodecyl sulphate (SDS) (Sigma) solution (10% in 0.01 M HCI) were added to each well and the plates were further incubated at 37 °C overnight. Cell growth was determined by measuring the optical density (OD) at 540/630 nm with Multiscan EX ELISA reader (Thermo Labsystems, Cheshire, WA, USA). Inhibition of the cell growth was determined according to the formula below: Inhibition %=100−[OD sample−OD medium control/OD cell control−OD medium control]×100
(§5) Results are expressed in terms of IC50, defined as the inhibitory dose that reduces the growth of the cells exposed to the tested compounds by 50%.

[3] = MTT cytotoxicity assay (24 h), Colo 205; type: cell-based, human; conditions: human colonic adenocarcinoma cell lines versus MRC-5, cytotoxicity; read-out: selectivity index [SI], cytotoxicity
Description: (§6) Human colonic adenocarcinoma cell lines (Colo 205 doxorubicin-sensitive and Colo 320/MDR-LRP multidrug-resistant expressing ABCB1 (MDR1)-LRP), ATCC-CCL-220.1 (Colo 320) and CCL-222 (Colo 205) were purchased from LGC Promochem, Teddington, UK. The cells were cultured in RPMI 1640 medium supplemented with 10% heat-inactivated foetal bovine serum, 2 mM L-glutamine, 1 mM Na-pyruvate and 100 mM Hepes. The cell lines were incubated at 37 °C, in a 5% CO2, 95% air atmosphere. The semi-adherent human colon cancer cells were detached with Trypsin-Versene (EDTA) solution for 5 min at 37 °C.
as §2
(§7) In case of the colonic adenocarcinoma cells, the 2-fold serial dilutions of compounds were prepared in 100 μL of RPMI 1640, horizontally. The semi-adherent colonic adenocarcinoma cells were treated with Trypsin-Versene (EDTA) solution. The density of the cells was adjusted to 6 × 10^3 cells (antiproliferative assay) or 1 × 10^4 cells (cytotoxicity assay) in 100 μL of RPMI 1640 medium, and was added to each well, with the exception of the medium control wells. The final volume of the wells containing compounds and cells was 200 μL.
as §4, §5

[4] = tested on: doxorubicin-sensitive Colo 205 colonic adenocarcinoma cells; assay: MTT cytotoxicity assay (24 h), Colo 205; type: cell-based, human; conditions: Homo sapiens, COLO 205; MTT, 24 h incubation; read-out: Cytotoxicity IC50, Colo205
Description: as §6, §2, §7, §4, §5

[5] = tested on: multidrug-resistant Colo 320 colonic adenocarcinoma cells; assay: MTT cytotoxicity assay (24 h), Colo 320; type: cell-based; conditions: Homo sapiens, COLO 320, 24 h, 24 h incubation, read-out: Cytotoxicity IC50, Colo320
Description: as §6, §2, §7, §4, §5

[6] = tested on: MRC-5 human embryonal lung fibroblast cell line; assay: MTT antiproliferative assay (72 h), MRC-5; type: cell-based; conditions: Homo sapiens, MRC5, 72 h incubation
Description: as §1, §2, §3, §4, §5

[7] = tested on: doxorubicin-sensitive Colo 205 colonic adenocarcinoma cells; assay: MTT antiproliferative assay (72 h), Colo 205; type: cell-based, human; conditions: Homo sapiens, COLO 205, 72 h incubation, read-out: Antiproliferative IC50, Colo205
Description: as §6, §2, §7, §4, §5

[8] = tested on: multidrug-resistant Colo 320 colonic adenocarcinoma cells; assay: MTT antiproliferative assay (72 h), Colo 320; type: cell-based, human; conditions: Homo sapiens, COLO 320, 72 h, MTT, 72 h incubation; read-out: Antiproliferative IC50, Colo320
Description: as §6, §2, §7, §4, §5

[9] = tested on: multidrug-resistant Colo 320 colonic adenocarcinoma cells expressing the ABCB1 transporter; assay: Checkerboard combination assay with doxorubicin; type: cell-based, human
Description: A checkerboard microplate method was applied to study the effect of drug interactions between the compounds and doxorubicin. The assay was carried out using multidrug-resistant Colo 320 colonic adenocarcinoma cells expressing the ABCB1 transporter. The final concentration of the chemotherapeutic agent doxorubicin used in the combination experiment was chosen in accordance with their antiproliferative activity previously determined. The dilutions of the chemotherapeutic drug were made in a horizontal direction in 100 μL, and the dilutions of the compounds vertically in the microtitre plate in 50 μL volume. The cells were re-suspended in culture medium and distributed into each well in 50 μL containing 6 × 10^3 cells each. The plates were incubated for 72 h at 37 °C in 5% CO2 atmosphere. The cell growth rate was determined after MTT staining. At the end of the incubation period, 20 μL of MTT (thiazolyl blue tetrazolium bromide, Sigma) solution (from a stock solution of 5 mg/mL) was added to each well. After incubation at 37 °C for 4 h, 100 μL of SDS (Sigma-Aldrich, St. Louis, MO, USA) solution (10% in 0.01 M HCl; Merck, Darmstadt, Germany) were added to each well and the plates were further incubated at 37 °C overnight. OD was measured at 540/630 nm with Multiscan EX ELISA reader (Thermo Labsystems, Cheshire, WA). Combination index (CI) values at 50% of the growth inhibition dose (ED50), were determined using CompuSyn software (ComboSyn, Inc., Paramus, NJ) to plot four to five data points to each ratio.

MCF-7 mp53 cells = tested on: MCF-7 mp53 cells; parameters: method as in Sturgeon et al. [2005]; conditions: ref Sturgeon et al. [2005]; cited from earlier work
Escherichia coli AG100 = conditions: EB accumulation, 60 min, positive control at 50 μM
Description: as §8

[10] = molecular target: T1, ABCB1 efflux pump (P-glycoprotein) (Homo sapiens, UniProt P08183); assay: Rhodamine 123 retention by flow cytometry (ABCB1 inhibition); type: cell-based; conditions: rhodamine 123, Colo 320 vs Colo 205, at 0.2 µM
T1 construct: The colonic adenocarcinoma cells (the doxorubicin-sensitive Colo 205 and the multidrug-resistant Colo 320); CCL-222 (Colo 205); host or cells: Colo 320/MDR-LRP (multidrug-resistant, overexpressing ABCB1) and Colo 205 (sensitive) human colon adenocarcinoma cells
T1 sequence (P08183 whole entry): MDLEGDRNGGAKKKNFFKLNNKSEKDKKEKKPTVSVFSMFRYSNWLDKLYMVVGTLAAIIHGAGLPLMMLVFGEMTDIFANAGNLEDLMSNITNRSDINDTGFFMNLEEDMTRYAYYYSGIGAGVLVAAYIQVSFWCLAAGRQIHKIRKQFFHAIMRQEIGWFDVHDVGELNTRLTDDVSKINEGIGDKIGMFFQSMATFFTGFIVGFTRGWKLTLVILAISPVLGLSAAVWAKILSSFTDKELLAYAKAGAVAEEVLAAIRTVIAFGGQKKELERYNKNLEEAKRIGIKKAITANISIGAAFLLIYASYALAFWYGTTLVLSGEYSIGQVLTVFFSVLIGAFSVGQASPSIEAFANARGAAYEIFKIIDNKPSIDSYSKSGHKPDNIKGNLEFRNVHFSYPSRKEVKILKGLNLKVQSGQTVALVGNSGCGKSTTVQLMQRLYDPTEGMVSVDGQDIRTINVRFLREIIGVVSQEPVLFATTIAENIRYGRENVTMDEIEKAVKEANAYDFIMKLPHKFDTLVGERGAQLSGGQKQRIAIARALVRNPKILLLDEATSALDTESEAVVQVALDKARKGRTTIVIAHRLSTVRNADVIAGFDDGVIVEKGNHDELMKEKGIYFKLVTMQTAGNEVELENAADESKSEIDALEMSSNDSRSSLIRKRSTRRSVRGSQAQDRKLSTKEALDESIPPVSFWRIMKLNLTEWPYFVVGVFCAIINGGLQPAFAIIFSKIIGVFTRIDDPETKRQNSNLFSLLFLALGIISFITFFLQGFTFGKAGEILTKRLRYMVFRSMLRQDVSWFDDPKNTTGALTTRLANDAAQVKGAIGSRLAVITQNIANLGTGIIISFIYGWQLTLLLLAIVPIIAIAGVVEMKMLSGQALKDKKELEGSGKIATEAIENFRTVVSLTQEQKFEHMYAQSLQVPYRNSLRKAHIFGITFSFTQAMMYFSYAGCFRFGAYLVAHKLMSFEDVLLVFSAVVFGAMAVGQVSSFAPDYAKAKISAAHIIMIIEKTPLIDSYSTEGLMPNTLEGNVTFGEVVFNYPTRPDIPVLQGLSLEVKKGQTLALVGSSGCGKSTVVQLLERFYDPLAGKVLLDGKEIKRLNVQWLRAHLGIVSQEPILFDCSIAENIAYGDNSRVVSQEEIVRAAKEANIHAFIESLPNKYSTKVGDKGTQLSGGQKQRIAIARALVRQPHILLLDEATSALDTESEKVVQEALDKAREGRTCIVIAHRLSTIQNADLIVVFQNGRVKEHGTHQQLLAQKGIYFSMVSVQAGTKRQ
Description: This method is a fluorescence-based detection system which uses tariquidar as a reference inhibitor of the ABCB1 efflux pump (EP). The colonic adenocarcinoma cells (the doxorubicin-sensitive Colo 205 and the multidrug-resistant Colo 320) were adjusted to a density of 2 × 10^6/mL, re-suspended in serum-free RPMI 1640 medium and distributed in 0.5 mL aliquots into Eppendorf centrifuge tubes. The compounds were added at different concentrations (2 μM and 20 μM final concentrations, respectively), and the samples were incubated for 10 min at room temperature. […] The fluorescence intensity of the cell population was measured with a Partec CyFlow flow cytometer (Partec, Munster, Germany). […] The mean fluorescence intensity (%) was calculated for the treated MDR Colo 320 and sensitive Colo 205 cell lines as compared to the untreated cells. The fluorescence activity ratio (FAR) was calculated based on the following equation which relates the measured fluorescence values: FAR=Colo 320treated/Colo 320control/Colo 205treated/Colo 205control
The fluorescence dye, rhodamine 123 was used as a marker of the ABCB1 transporter activity to explore the potential inhibitory activity of the isolated compounds. Inside cells without overexpressing the P-glycoprotein, the rhodamine 123 accumulates and resulting in an increase in fluorescence intensity (λex = 490/λem = 525 nm). […]

In the case of `COC(=O)[C@H]1[C@H]2C[C@@H]3c4[nH]c5cc(OC)ccc5c4CCN3C[C@H]2C[C@@H](OC(=O)c2cc(OC)c(OC)c(OC)c2)[C@@H]1OC` [reserpine], the “RFI (relative fluorescence index)” value [1] is reported as 2.77.
`CC(=O)O[C@@H]1C[C@H]2[C@@H](C)CC[C@@H]3[C@@H](OC(=O)[C@@H]3C)[C@]2(C)C1=O` [Compound 2, acetoxydihydrodamsin] gave an IC50 at 24 h [2] of 23.8 ± 1.06 µM, a selectivity ratio at 24 h [3] of 3.11 and an IC50 [4] of 7.64 ± 0.37 µM. It also gave an IC50 [5] of 10.8 ± 0.22 µM, an IC50 [6] of 11 ± 0.31 µM and an IC50 [7] of 5.14 ± 0.55 µM. For the same compound, the IC50 [8] was 3.67 ± 0.35 µM, the Type of interaction ([9]; starting concentration 15 µM, ratio 1.74:1) was “Antagonism” and the Type of interaction ([9]; starting concentration 15 µM, ratio 3.48:1) was “Antagonism”. The Type of interaction ([9]; starting concentration 15 µM, ratio 6.96:1) was “Antagonism”, the Type of interaction ([9]; starting concentration 15 µM, ratio 13.92.1) was “Antagonism” and the Type of interaction ([9]; starting concentration 15 µM, ratio 27.84:1) was “Moderate antagonism”. For the same compound, the Type of interaction ([9]; starting concentration 15 µM, ratio 55.68:1) was “Moderate antagonism”.
`C=C1C(=O)O[C@@H]2[C@H]1CC[C@H](C)[C@@H]1CCC(=O)O[C@@]21C` [Compound 1, psilostachyin C] gave an IC50 at 24 h [2] of 52.7 ± 2.62 µM, an IC50 [4] of 26.6 ± 0.48 µM and an IC50 [5] of 28.71 ± 0.11 µM. The IC50 [6] was 35.1 ± 4.03 µM, the IC50 [7] was 15.6 ± 0.83 µM and the IC50 [8] was 14.7 ± 0.82 µM. For the same compound, the Type of interaction ([9]; starting concentration 50 µM, ratio 11.6:1) was “Strong antagonism”, the Type of interaction ([9]; starting concentration 50 µM, ratio 23.2:1) was “Antagonism” and the Type of interaction ([9]; starting concentration 50 µM, ratio 46.4:1) was “Slight antagonism”. The Type of interaction ([9]; starting concentration 50 µM, ratio 92.8:1) was “Antagonism”, the Type of interaction ([9]; starting concentration 50 µM, ratio 185:1) was “Moderate antagonism” and the Type of interaction ([9]; starting concentration 50 µM, ratio compound:doxorubicin 5.8:1) was “Strong antagonism”. For the same compound, the “effect on mitosis of MCF-7 mp53 cells (G2 checkpoint inhibitors)” value (MCF-7 mp53 cells) was “blocked MCF-7 mp53 cells in mitosis”.
In the case of “carbonyl cyanide m-chlorophenylhydrazine [CCCP]”, the “RFI (relative fluorescence index)” value (Escherichia coli AG100) is reported as 1.34.
With `COc1cc2c(cc1OC)CN(CCc1ccc(NC(=O)c3cc(OC)c(OC)cc3NC(=O)c3cnc4ccccc4c3)cc1)CC2` [tariquidar] the “FAR value (fluorescence activity ratio)” value [10] was 6.6.
